# Source: US6998392B2, “Formulation to treat or prevent parasitic infection” (MTI Meta Tech Inc., priority 2003, dated 2006)
# System: Giardia lamblia (WB strain) trophozoites
# Test: Growth of Giardia lamblia trophozoites during 24 hr and 48 hr incubation in vitro (live and dead counts)
# Assay type: cell-based
# Conditions: for Reduction of live trophozoites compared to control cultures: 48 hr incubation, n=3
# Protocol: Methods for Evaluating the Effect of Ganglioside Enriched Preparation and Ganglioside Fractions on Growth of Giardia lamblia Trophozoites in vitro. The following method was used for preparation of culture medium containing ganglioside. A preparation containing gangliosides was vortexed and sonicated (Sonic 300 Dismembrator™, Artek System Corp.) in 10 ml of TYI-S-33 culture medium, and further diluted by adding 990 ml of culture medium. This stock culture medium containing a known concentration of gangliosides was filtered in succession through Whatman™ No. 1 filter paper, 0.8 μm, 0.45 μm (Milli-Fil-P.F.™ Millipore Corp.), and 0.22 μm (Sterivex-GS™ filters with filling bell, Millipore Corp) filters connected to a peristaltic pump. This stock solution was kept at −30° C. and was diluted on the day of inoculation.
# G. lamblia (WB strain) trophozoites were cultured in Diamond's TYI-S-33 (Diamond et al., 1978.). G. lamblia trophozoites (5×10^5) were inoculated in 12.5 cm^2 tissue culture flasks in the total volume of […]. Nutrient stock solution containing gangliosides was diluted to provide a concentration of ganglioside (as N-Acetyl neuraminic acid amounts, NANA) at 0 (control), 0.001, 0.01, 1, 2, and 4 μg/ml. The cultures were incubated for 24 and 48 hr at 37° C. in 5% CO2, and the number of live and dead (no flagellar movement) trophozoites determined using a hemocytometer.
# The following method was used for preparation of culture medium containing ganglioside fraction. Total lipids were extracted from the ganglioside enriched preparation using the Folch method (Folch et al., 1957). The ganglioside containing upper phase was transferred and the lower phase was washed once with Folch upper phase solution (chloroform/methanol/water, 3/48/47 by vol.). The combined ganglioside containing fractions were passed through Sep-Pak™ C18 reverse-phase cartridges (Waters Corporation, Milford, Mass., USA), eluted with methanol and chloroform and methanol 2:1 (v/v), and dried completely under vacuum at 23° C. using a rotary evaporator (Williams et al., 1980). Ganglioside (NANA) content was measured as described by Suzuki (1964). Gangliosides were then diluted using the culture medium and filtered as described above.
# G. lamblia trophozoites (5×10^5) were incubated for 24 hr and 48 hr with ganglioside fraction at the concentration of 0 (control), 4, 8, 10, 12, 14, 16 and 20 μg/ml in 12.5 cm^2 tissue culture flasks as described above.
# In vitro. This study was performed to determine if Fraction A is directly toxic to the parasite. Several dilutions of Fraction A was added to the media at the concentration of 0, 0.001, 0.01, 0, 1, 1, 2, and 4 ug/ml and incubated for 24 hours and 48 hours after inoculation with 500,000 Giardia lamblia trophozoites. […]
substance,measurement,setting,value
II^(NeuAc)2-LacCer [GD3],Reduction of live trophozoites compared to control cultures,10 μg/ml (NANA),25%
same,Reduction of live trophozoites compared to control cultures,20 μg/ml (NANA),55%
same,Live trophozoites as a percent of control versus concentration,"48 hour incubation, in words (FIG. 12)",decrease as a percent of control in a dose-dependent manner
same,Dead trophozoites as a percentage of live trophozoites versus concentration,"48 hour incubation, in words (FIG. 13)",increase as a percentage of live trophozoites
